Values of other authors, collected in patent publication US20220333071A1, “METHODS OF MAKING, EXPANDING AND PURIFYING MIDBRAIN DOPAMINERGIC PROGENITOR CELLS” (BrainXell, Inc., priority 2021, published 2022).

Key:
ALK-1 = ALK-1 (Homo sapiens, UniProt P37023); details: in vitro kinase assays
PDGFRβ = PDGFRβ (Homo sapiens, UniProt P09619)
ALK-3 = ALK-3 (Homo sapiens, UniProt P36894); details: in vitro kinase assays
ALK5 = biological target: T1, ALK5 (Homo sapiens, UniProt P36897)
T1 sequence (P36897 34-503): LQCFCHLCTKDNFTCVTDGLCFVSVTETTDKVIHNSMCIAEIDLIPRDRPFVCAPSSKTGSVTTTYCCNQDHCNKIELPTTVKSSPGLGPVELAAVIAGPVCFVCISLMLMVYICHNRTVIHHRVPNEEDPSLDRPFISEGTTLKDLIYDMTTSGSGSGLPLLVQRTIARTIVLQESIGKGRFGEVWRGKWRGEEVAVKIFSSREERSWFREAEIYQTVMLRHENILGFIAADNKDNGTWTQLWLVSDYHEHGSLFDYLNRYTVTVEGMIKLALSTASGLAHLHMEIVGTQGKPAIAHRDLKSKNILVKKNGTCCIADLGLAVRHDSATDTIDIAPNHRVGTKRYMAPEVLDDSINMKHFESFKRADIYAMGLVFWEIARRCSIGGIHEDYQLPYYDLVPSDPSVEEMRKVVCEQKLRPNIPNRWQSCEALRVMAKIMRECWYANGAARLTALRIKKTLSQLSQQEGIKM

[1] = system: BMP4-induced phosphorylation of Smads 1, 5 and 8; details: HEK293 cells
KDR (VEGFR-2) = KDR (VEGFR-2) (Homo sapiens, UniProt P35968)
[2] = system: Wnt-mediated transcription; details: read-out: IC50, inhibition of Wnt-mediated transcription

Sequence of ALK-3 (P36894 24-532, species assumed): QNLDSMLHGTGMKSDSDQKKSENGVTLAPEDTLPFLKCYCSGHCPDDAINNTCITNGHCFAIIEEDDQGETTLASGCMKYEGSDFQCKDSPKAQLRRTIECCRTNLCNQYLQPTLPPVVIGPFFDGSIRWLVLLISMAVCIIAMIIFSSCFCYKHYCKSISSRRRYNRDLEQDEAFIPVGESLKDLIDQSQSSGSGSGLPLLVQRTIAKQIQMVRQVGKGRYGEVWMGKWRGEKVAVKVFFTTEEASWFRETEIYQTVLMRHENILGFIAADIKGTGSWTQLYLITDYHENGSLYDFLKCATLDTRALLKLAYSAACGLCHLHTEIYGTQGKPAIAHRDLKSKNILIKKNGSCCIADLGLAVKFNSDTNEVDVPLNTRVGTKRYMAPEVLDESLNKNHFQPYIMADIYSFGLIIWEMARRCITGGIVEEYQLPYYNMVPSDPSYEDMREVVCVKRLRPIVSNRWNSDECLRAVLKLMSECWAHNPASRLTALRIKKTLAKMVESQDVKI
Sequence of KDR (VEGFR-2) (P35968 20-1356, species assumed): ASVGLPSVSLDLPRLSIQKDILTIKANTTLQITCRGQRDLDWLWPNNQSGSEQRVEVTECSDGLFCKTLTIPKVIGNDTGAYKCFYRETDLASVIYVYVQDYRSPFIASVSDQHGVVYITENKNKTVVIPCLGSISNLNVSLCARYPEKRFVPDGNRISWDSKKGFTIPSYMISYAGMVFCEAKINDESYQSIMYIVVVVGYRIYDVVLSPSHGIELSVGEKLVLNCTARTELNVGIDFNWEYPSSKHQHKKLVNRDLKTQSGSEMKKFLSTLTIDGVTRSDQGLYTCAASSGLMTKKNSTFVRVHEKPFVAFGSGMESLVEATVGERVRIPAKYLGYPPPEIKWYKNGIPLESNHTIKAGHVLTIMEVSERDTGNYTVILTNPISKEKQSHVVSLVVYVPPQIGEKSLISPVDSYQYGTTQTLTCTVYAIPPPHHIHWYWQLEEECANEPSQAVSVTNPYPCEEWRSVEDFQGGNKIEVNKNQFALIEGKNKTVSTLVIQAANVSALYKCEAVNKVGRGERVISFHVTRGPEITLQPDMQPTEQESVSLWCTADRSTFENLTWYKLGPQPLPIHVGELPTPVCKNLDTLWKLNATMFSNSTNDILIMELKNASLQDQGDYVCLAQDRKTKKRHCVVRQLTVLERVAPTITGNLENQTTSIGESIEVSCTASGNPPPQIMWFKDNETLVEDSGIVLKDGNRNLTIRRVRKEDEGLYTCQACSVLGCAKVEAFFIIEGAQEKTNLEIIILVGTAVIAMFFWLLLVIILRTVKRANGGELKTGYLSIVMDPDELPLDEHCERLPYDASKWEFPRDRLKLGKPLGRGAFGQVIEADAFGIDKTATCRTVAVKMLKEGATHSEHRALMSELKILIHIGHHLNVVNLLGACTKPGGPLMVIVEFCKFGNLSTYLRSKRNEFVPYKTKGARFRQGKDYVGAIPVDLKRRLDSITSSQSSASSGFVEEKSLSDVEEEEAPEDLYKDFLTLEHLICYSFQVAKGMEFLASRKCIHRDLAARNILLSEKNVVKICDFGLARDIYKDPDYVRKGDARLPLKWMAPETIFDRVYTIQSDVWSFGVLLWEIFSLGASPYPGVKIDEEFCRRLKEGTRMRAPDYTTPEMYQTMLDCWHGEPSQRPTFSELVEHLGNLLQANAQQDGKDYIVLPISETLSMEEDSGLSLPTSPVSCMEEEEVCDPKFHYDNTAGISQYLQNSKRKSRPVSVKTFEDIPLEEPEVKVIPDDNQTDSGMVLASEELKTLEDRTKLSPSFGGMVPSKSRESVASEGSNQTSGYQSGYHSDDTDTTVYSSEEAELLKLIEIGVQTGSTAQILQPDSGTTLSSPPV
Sequence of PDGFRβ (P09619 33-1106, species assumed): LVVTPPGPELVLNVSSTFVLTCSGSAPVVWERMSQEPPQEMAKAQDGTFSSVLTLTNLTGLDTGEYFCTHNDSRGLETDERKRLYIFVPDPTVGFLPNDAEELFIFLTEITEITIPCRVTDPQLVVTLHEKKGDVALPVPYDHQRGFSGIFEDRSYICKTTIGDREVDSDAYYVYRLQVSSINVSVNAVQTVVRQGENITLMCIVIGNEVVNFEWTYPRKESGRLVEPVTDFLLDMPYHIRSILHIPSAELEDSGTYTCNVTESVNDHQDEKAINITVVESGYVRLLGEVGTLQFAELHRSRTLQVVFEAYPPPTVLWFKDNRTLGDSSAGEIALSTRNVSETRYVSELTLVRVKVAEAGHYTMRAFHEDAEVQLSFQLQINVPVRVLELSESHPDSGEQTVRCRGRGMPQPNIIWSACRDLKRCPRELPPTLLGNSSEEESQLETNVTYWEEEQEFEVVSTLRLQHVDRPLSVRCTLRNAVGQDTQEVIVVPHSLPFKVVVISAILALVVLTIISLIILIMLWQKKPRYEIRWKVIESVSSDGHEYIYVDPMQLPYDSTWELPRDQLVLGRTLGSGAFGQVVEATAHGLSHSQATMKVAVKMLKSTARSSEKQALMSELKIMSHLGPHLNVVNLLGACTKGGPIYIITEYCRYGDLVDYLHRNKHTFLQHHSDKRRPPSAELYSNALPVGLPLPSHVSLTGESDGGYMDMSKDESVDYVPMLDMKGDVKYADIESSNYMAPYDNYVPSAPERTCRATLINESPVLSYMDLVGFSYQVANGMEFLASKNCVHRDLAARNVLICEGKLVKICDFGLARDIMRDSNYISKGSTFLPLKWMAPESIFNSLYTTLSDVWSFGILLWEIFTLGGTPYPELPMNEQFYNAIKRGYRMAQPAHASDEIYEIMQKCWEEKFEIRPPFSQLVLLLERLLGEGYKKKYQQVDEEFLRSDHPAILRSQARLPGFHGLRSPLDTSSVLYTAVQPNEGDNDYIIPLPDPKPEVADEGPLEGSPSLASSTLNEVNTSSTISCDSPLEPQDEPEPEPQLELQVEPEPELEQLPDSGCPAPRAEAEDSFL
Sequence of ALK-1 (P37023 22-503, species assumed): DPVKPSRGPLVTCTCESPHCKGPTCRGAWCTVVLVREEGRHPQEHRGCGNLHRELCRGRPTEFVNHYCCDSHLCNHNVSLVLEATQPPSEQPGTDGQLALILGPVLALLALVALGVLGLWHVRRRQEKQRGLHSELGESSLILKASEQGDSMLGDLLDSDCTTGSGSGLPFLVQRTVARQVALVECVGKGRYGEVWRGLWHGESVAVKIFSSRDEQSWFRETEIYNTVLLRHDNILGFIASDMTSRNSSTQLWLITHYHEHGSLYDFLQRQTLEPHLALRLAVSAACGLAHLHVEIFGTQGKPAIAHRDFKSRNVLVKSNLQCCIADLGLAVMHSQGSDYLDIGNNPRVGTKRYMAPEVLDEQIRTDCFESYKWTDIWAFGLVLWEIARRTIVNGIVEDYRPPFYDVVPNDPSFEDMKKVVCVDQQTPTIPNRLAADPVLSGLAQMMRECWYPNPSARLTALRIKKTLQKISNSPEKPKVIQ

CC(C)Oc1ccc(-c2cnc3c(-c4ccnc5ccccc45)cnn3c2)cc1 [DMH-1, 4-[6-[4-(1-Methylethoxy)phenyl]pyrazolo[1,5-a]pyrimidin-3-yl]-quinoline]
inhibition of AMPK (AMPK): no significant inhibition | selectivity for ALK-2 over ALK-1 (ALK-1): 6 fold | inhibition of PDGFRβ (PDGFRβ): no significant inhibition | selectivity for ALK-2 over ALK-3 (ALK-3): 19 fold | inhibition of ALK5 (ALK5): no significant inhibition | BMP4-induced phosphorylation of Smads 1, 5 and 8 [1]: Blocks | inhibition of KDR (VEGFR-2) (KDR (VEGFR-2)): no significant inhibition

Cc1c[nH]c(-c2cnc(NCCNc3ccc(C#N)cn3)nc2-c2ccc(Cl)cc2Cl)n1 [CHIR99021, 6-(2-(4-(2,4-dichlorophenyl)-5-(4-methyl-1H-imidazol-2-yl)pyrimidin-2-ylamino)ethylamino) nicotinonitrile]
IC50 values against rodent GSK3-β homologs (rodent GSK3-β homologs): nanomolar

Cc1cc(-c2ccc(CC(=O)Nc3ccc(-c4cccnc4)cc3)cc2)ccn1 [Wnt-059, 4-(2-Methyl-4-pyridinyl)-N-[4-(3-pyridinyl)phenyl]benzeneacetamide]
IC50 [2]: 74 pM
